Entries after “also recorded” stand apart in the source; their conditions may differ. Read-outs that look alike come from different tables or passages of the source.
Key:
aged-impaired (AI) rats [1] = assay: Morris water maze behavioral task, ICV infusion; format: in vivo, rat; conditions: 100 μg ICV
Experimental: The effects of 6,6 dimethyl-3-(3-hydroxypropyl)thio-1-(thiazol-2-yl)-6,7-dihydro-2-benzothiophen-4(5H)-one on the in vivo spatial memory retention of aged-impaired (AI) rats were assessed in a Morris water maze behavioral task. A water maze is a pool surrounded with a novel set of patterns relative to the maze.
Cognitively impaired aged rats were implanted unilaterally with a cannula into the lateral ventricle. Stereotaxic coordinates were 1.0 mm posterior to bregma, 1.5 mm lateral to midline, and 3.5 mm ventral to the skull surface. After about a week of recovery, the rats were pre-trained in a water maze for 2 days (6 trials per day) to locate a submerged escape platform hidden underneath the surface of the pool, in which the escape platform location varied from day to day. No intracerebroventricular (ICV) infusion was given during pre-training
After pre-training, rats received ICV infusion of either 100 μg 6,6 dimethyl-3-(3-hydroxypropyl)thio-1-(thiazol-2-yl)-6,7-dihydro-2-benzothiophen-4(5H)-one (n=6) in 5 μl DMSO or vehicle DMSO (n=5) 40 min prior to water maze training and testing. Training consisted of 8 trials per day for 2 days where the hidden escape platform remained in the same location. Rats were given 60 seconds to locate the platform with a 60 seconds inter-trial interval. The rats were given a probe test (120 seconds) 24 hr after the end of training where the escape platform was removed. During the training, there were 4 blocks, where each block had 4 training trials.
During a test trial 24 hr after training, the escape platform was removed. The search/swim pattern of the rats was used to measure whether the rats remember where the escape platform was located during pre-trial training in order to test for the long-term memory of the rats. In this trial, “target annulus” is a designated area 1.5 times the size of the escape platform around the area where the platform was located during pre-trial training “Opposite annulus” is a control area of the same size as the size of the target annulus, which is located opposite to the target annulus in the pool. If the rats had good long term memory, they would tend to search in the area surrounding the location where the platform was during the pre-trial training (i.e., the “target” annulus; and not the “opposite” annulus). “Time in annulus” is the amount of time in seconds that the rat spent in the target or opposite annulus area. “Number (#) of crossings” in annulus is the number of times the rat swam across the target or opposite annulus area.

GABAA receptors (α5β3γ2) = target: T1, GABAA receptors (α5β3γ2) (Homo sapiens, UniProt P18507+P28472+P31644); assay: Potentiation of GABA EC50 current, two-electrode voltage clamp (TEVC) in Xenopus oocytes expressing GABAA α5β3γ2; format: cell-based; conditions: read-out: GABA α5 EC50 % potentiation
T1 construct: myc-His (from vector pcDNA3.1 myc-His); expressed in transfected cells; host or cells: Xenopus laevis oocytes injected with cDNAs in pcDNA3.1 / pcDNA3.1 myc-His
Experimental: The agonist activity of the compounds of this invention was determined by measuring their effect on GABA-gated Cl— current from Xenopus oocytes expressing GABAA α5β3γ2 subtype receptor in a two-electrode voltage clamp (TEVC) setup.
In this study, the GABA-gated Cl^− current from oocytes expressing GABAAR α5β3γ2 subtype was measured in the TEVC setup in the presence of the test compounds. […] Upon conclusion of compound testing and successful washout, a 1.0 μM diazepam was tested and used for comparative activity on the two GABAAR subtypes.
Other concentrations of the test compound may also be tested following the same protocol.
Results are expressed as mean±SEM.

GABAA α5 receptor [2] = assay: in vivo; format: in vivo, Long Evans rats; conditions: i.v.; for effect on Ro 15-4513 binding/levels in cerebellum: 0.01-10 mg/kg
Description: (§1) Food and water were available ad libitum.

in vivo [3] = format: in vivo, Long Evans rats; conditions: male, Long Evans, rat, iv, tracer 1 μg/kg, i.v., after vehicle administration
Description: as §1

GABAA α5 receptor [4] = target: T2, GABAA α5 receptor (Rattus norvegicus, UniProt P18508+P19969); assay: in vivo; format: in vivo, Long Evans rats; conditions: for effect on Ro 15-4513 binding in hippocampus: 0.01-10 mg/kg; for dose dependence of GABAA α5 receptor occupancy: administered intravenously
T2 construct: from tissue; host or cells: rat brain in vivo; hippocampus compared with cerebellum
Description: as §1

aged-impaired (AI) rats [5] = assay: Radial Arm Maze (RAM) behavioral task, spatial memory retention; format: in vivo, rat
Experimental: The effects of methyl 3,5-diphenylpyridazine-4-carboxylate on the in vivo spatial memory retention of aged-impaired (AI) rats were assessed in a Radial Arm Maze (RAM) behavioral task using vehicle control and four different dosage levels of methyl 3,5-diphenylpyridazine-4-carboxylate ([…]). RAM behavioral tasks were performed on eight AI rats. All five treatment conditions (vehicle and four dosage levels) were tested on all eight rats.
The RAM apparatus used consisted of eight equidistantly-spaced arms. An elevated maze arm (7 cm width×75 cm length) projected from each facet of an octagonal center platform (30 cm diameter, 51.5 cm height). Clear side walls on the arms were 10 cm high and were angled at 65° to form a trough. A food well (4 cm diameter, 2 cm deep) was located at the distal end of each arm. Froot Loops™ (Kellogg Company) were used as rewards. Blocks constructed of Plexiglas™ (30 cm height×12 cm width) could be positioned to prevent entry to any arm. Numerous extra maze cues surrounding the apparatus were also provided.
The AI rats were initially subjected to a pre-training test (Chappell et al. Neuropharmacology 37: 481-487, 1998). The pre-training test consisted of a habituation phase (4 days), a training phase on the standard win-shift task (18 days) and another training phase (14 days) in which a brief delay was imposed between presentation of a subset of arms designated by the experimenter (e.g., 5 arms available and 3 arms blocked) and completion of the eight-arm win-shift task (i.e., with all eight arms available).
In the habituation phase, rats were familiarized to the maze for an 8-minute session on four consecutive days. In each of these sessions, food rewards were scattered on the RAM, initially on the center platform and arms and then progressively confined to the arms. After this habituation phase, a standard training protocol was used, in which a food pellet was located at the end of each arm. Rats received one trial each day for 18 days. Each daily trial terminated when all eight food pellets had been obtained or when either 16 choices were made or 15 minutes had elapsed. After completion of this training phase, a second training phase was carried out in which the memory demand was increased by imposing a brief delay during the trial. At the beginning of each trial, three arms of the eight-arm maze were blocked. Rats were allowed to obtain food on the five arms to which access was permitted during this initial “information phase” of the trial. Rats were then removed from the maze for 60 seconds, during which time the barriers on the maze were removed, thus allowing access to all eight arms. Rats were then placed back onto the center platform and allowed to obtain the remaining food rewards during this “retention test” phase of the trial. […]

in vivo [6] = format: in vivo, Long Evans rats; conditions: for concentration at 35 min: male, young Long Evans rats
Experimental: as §1
For plasma exposures, blood samples were centrifuged at 14000 rpm for 16 minutes. After centrifuging, 50 ul of supernatant (plasma) from each sample was added to 200 μl of acetonitrile plus 0.1% formic acid. […] Samples were sonicated for 5 minutes in an ultrasonic water bath, followed by centrifugation for 30 minutes, at 16000 RPM. 100 ul of supernatant was removed from each sample vial and placed in a new glass auto sample vial, followed by the addition of 300 μl of sterile water (pH 6.5).
Additional studies were conducted in aged Long-Evans rats in order to determine the exposures at the behaviorally relevant doses in the cognition studies. Exposure in young Long-Evans rats was also determined to bridge with the receptor occupancy studies that were conducted in young Long-Evans rats. Exposures in young and aged Long-Evans rats were relatively similar (Table 3, FIG. 4).

α5-containing GABAA R = α5-containing GABAA R (Homo sapiens, UniProt P18507+P31644); conditions: (EC20); van Niel et al. J. Med. Chem. 2005; cited from earlier work
[7] = probe test 24 hr after training
[8] = dose increase from 1 to 10 mg/kg, i.v.

T2 sequence (P19969 32-464 limits assumed): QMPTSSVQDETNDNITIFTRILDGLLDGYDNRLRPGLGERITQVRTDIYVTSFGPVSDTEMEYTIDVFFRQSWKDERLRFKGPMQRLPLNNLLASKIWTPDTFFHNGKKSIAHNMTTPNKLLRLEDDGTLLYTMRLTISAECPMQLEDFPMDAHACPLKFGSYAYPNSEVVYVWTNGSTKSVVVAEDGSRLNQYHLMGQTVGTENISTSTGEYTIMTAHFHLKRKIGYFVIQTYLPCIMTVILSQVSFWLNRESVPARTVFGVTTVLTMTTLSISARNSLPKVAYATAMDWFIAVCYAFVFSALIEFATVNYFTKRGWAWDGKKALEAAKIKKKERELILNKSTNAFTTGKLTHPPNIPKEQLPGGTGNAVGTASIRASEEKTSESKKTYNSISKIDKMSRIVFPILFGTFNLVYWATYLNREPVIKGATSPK
T2 sequence (P18508 39-466): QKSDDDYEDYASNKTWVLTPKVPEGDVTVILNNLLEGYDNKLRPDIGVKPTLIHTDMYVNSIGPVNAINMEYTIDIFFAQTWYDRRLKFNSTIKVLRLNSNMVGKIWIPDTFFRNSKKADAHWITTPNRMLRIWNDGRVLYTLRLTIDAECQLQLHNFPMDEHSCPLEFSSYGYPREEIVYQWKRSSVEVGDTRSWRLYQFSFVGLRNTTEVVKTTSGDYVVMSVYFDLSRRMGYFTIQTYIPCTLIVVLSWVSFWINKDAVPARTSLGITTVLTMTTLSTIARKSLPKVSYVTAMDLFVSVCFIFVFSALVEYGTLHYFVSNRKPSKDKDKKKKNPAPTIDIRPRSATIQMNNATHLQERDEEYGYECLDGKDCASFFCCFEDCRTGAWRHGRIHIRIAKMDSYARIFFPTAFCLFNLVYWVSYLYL
T1 sequence (P31644 32-462): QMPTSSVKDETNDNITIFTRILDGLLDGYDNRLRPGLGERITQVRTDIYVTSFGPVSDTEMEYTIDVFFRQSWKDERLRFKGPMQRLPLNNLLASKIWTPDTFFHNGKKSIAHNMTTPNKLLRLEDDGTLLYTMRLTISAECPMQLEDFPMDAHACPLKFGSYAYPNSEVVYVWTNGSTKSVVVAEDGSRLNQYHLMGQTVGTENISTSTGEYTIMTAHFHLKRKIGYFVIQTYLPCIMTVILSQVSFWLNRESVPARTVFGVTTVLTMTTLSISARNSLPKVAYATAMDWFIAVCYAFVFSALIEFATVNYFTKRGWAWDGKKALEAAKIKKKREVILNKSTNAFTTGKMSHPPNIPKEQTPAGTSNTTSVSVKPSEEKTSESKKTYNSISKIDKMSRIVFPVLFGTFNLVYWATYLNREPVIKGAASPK
T1 sequence (P28472 26-473): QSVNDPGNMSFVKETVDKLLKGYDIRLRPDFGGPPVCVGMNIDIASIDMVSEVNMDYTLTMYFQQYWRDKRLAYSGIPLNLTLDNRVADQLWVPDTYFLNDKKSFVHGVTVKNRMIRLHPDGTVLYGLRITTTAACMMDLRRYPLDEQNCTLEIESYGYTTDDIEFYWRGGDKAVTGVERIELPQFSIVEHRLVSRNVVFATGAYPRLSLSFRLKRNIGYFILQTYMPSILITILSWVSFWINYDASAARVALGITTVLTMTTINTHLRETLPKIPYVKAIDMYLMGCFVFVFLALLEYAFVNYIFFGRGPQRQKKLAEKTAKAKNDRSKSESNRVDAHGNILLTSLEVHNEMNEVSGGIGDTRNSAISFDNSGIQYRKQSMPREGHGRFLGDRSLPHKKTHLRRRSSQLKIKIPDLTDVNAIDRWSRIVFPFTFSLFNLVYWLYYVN
T1 sequence (P18507 40-475): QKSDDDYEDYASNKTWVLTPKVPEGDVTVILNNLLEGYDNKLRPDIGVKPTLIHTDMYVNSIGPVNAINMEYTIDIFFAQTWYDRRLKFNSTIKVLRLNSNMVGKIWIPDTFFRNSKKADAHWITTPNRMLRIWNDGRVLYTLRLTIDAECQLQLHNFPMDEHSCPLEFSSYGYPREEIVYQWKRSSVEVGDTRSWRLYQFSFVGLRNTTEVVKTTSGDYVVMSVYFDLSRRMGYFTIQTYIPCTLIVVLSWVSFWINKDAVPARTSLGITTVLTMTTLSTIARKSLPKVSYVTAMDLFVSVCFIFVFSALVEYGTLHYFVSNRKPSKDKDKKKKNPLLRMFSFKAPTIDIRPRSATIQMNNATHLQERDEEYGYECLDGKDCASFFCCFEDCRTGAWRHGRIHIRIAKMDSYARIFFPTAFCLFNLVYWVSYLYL
Chain of α5-containing GABAA R (P31644 32-462): as the sequence (P31644 32-462) above
Chain of α5-containing GABAA R (P28472 26-473 partner): as the sequence (P28472 26-473) above
Chain of α5-containing GABAA R (P18507 40-475): as the sequence (P18507 40-475) above

CC1(C)CC(=O)c2c(SCCCO)sc(-c3nccs3)c2C1 [6,6 dimethyl-3-(3-hydroxypropyl)thio-1-(thiazol-2-yl)-6,7-dihydro-2-benzothiophen-4(5H)-one]
learning of the water maze task (aged-impaired (AI) rats [1]): improved the learning of the water maze task | long-term memory in the water maze task (aged-impaired (AI) rats [1]): improved the long-term memory | time to find the escape platform (escape latency) (aged-impaired (AI) rats [1]; beginning of training (block 1)): about 24 seconds | time to find the escape platform (escape latency) (aged-impaired (AI) rats [1]; end of training (block 4)): about 9.6 seconds | number of crossings of target annulus vs opposite annulus (aged-impaired (AI) rats [1]; [7]): crossed the “target annulus” more often | time in target annulus vs opposite annulus (aged-impaired (AI) rats [1]; [7]): spent significantly more time in the target annulus

CCN(CC)C(=O)c1ncn2c1Cn1nnc(C)c1-c1cc(OC)ccc1-2 [Compound 2]
activation at 10 µM (GABAA receptors (α5β3γ2)): 6.2%

CCc1nnn2c1-c1cc(OC)ccc1-n1cnc(C(=O)N(CC)CC)c1C2 [Compound 7]
activation at 1 µM (GABAA receptors (α5β3γ2)): 11.1%

CCOC(=O)c1ncn2c1Cn1nnc(C)c1-c1cc(Cl)ccc1-2 [Compound 9]
activation at 1 µM (GABAA receptors (α5β3γ2)): 8.3%

CCOC(=O)c1ncn2c1CN(C)C(=O)c1cc(N=[N+]=[N-])ccc1-2 [Ro 15-4513]
higher levels in hippocampus compared with cerebellum (GABAA α5 receptor [2]; tracer 1 μg/kg, after vehicle administration): > 5 fold | concentration at 20 min (in vivo [3]; cerebellum, read-out: levels of Ro 15-4513 in cerebellum): 0.36 ± 0.02 ng/g | concentration at 20 min (in vivo [3]; hippocampus, read-out: levels of Ro 15-4513 in hippocampus): 1.93 ± 0.05 ng/g

CCOC(=O)c1ncn2c1Cn1c(C)nnc1-c1cc(OC)ccc1-2 [ethyl 3-methoxy-7-methyl-9H-benzo[f]imidazo[1,5-a][1,2,4]triazolo[4,3-d][1,4]diazepine-10-carboxylate]
effect on Ro 15-4513 binding/levels in cerebellum (GABAA α5 receptor [2]): did not affect binding of Ro15413 in the cerebellum; also recorded: without affecting cerebellum levels of Ro 15-4513 | effect on Ro 15-4513 binding in hippocampus (GABAA α5 receptor [4]; i.v.): blocked the binding of Ro154513 in the hippocampus; also recorded: reduced Ro 15-4513 binding in hippocampus | GABAA α5 receptor occupancy (GABAA α5 receptor [4]; 10 mg/kg, i.v.): > 90% | dose dependence of GABAA α5 receptor occupancy (GABAA α5 receptor [4]): dose-dependent | memory performance relative to vehicle control (aged-impaired (AI) rats [5]; 3 mg/kg, four-hour delay RAM, t(7)=4.13, p=0.004, or t(7)=3.08, p=0.018): significantly improved memory performance | memory performance relative to vehicle control (aged-impaired (AI) rats [5]; 10 mg/kg, four-hour delay RAM, t(7)=2.82, p=0.026): significantly improved memory performance

COC(=O)c1c(-c2ccccc2)cnnc1-c1ccccc1 [methyl 3,5-diphenylpyridazine-4-carboxylate]
Kp (in vivo [6]; Long Evans, rat, in vivo, read-out: brain/plasma ratios): > 1 | increase in hippocampal exposure (in vivo [6]; dose increase from 0.1 to 1 mg/kg, i.v.): 12 fold | increase in hippocampal exposure (in vivo [6]; [8]): ~5 fold | increase in plasma exposure (in vivo [6]; [8]): 12 fold | concentration at 35 min (in vivo [6]; Long Evans, rat, in vivo, 0.1 mg/kg, i.v., read-out: Hippocampus exposure (SEM)): 14.6 ng/g | concentration at 35 min (in vivo [6]; Long Evans, rat, in vivo, 1 mg/kg, i.v., read-out: Hippocampus exposure (SEM)): 180 ng/g | concentration at 35 min (in vivo [6]; Long Evans, rat, in vivo, 1 mg/kg, i.v., read-out: Plasma exposure (SEM)): 62.8 ng/mL | concentration at 35 min (in vivo [6]; Long Evans, rat, in vivo, 10 mg/kg, i.v., read-out: Hippocampus exposure (SEM)): 947 ng/g | concentration at 35 min (in vivo [6]; Long Evans, rat, in vivo, 10 mg/kg, i.v., read-out: Plasma exposure (SEM)): 764 ng/mL | effect on Ro 15-4513 binding/levels in cerebellum (GABAA α5 receptor [2]): did not affect binding of Ro15413 in the cerebellum; also recorded: without affecting cerebellum levels of Ro 15-4513 | effect on Ro 15-4513 binding in hippocampus (GABAA α5 receptor [4]; i.v.): blocked the binding of Ro154513 in the hippocampus; also recorded: dose-dependently reduced Ro 15-4513 binding in hippocampus | dose dependence of GABAA α5 receptor occupancy (GABAA α5 receptor [4]): dose-dependent increase | average no. of errors ± SEM in retention test (aged-impaired (AI) rats [5]; 3 mg/kg i.p., two-hour delay RAM, AI rats): 1.31±0.40 | memory performance relative to vehicle control (aged-impaired (AI) rats [5]; 3 mg/kg i.p., two-hour delay RAM, t(7)=4.233, p=0.004): significantly improved memory performance | α5 in vitro efficacy (α5-containing GABAA R): +27
